Laboratory results: BindingDB's records for doi:10.1210/endo.135.6.7988476 (Mcgill University, 1994)
Bridge positions count the residues as written; N and C are the ends. Square brackets hold non-standard residues; d marks the D form. Peptide text beside a SMILES is read from it. * marks the point of attachment. NH(1-naphthylmethyl) = c1ccc2c(CN*)cccc2c1

Experiments:
[1] = target: Somatostatin receptor type 3 (Homo sapiens, UniProt P32745)
[2] = target: Somatostatin receptor type 1 (Homo sapiens, UniProt P30872)
Chain of Somatostatin receptor type 1 (P30872 whole entry): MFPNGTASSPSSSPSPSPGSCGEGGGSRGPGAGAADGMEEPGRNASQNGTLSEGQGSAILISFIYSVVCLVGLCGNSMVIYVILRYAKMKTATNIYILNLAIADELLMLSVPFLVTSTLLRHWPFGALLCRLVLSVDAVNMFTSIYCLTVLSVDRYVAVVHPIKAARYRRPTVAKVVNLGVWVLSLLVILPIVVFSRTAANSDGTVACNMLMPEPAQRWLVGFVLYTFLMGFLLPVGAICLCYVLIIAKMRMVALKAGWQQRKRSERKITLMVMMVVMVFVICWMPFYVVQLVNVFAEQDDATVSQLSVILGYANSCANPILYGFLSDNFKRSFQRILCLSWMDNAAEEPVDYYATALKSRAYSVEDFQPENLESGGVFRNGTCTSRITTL

[3] = target: Somatostatin receptor type 2 (Homo sapiens, UniProt P30874)
Chain of Somatostatin receptor type 2 (P30874 whole entry): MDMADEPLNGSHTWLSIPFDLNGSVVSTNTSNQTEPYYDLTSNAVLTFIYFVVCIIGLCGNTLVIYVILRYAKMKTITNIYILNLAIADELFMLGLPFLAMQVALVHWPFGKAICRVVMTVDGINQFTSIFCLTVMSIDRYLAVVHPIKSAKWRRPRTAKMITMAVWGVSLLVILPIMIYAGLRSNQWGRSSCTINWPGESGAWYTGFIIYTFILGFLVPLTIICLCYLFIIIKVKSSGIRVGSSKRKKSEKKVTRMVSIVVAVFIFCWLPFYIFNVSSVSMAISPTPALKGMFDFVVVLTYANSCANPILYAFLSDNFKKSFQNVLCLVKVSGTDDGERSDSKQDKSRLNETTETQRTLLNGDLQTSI

[4] = target: Somatostatin receptor type 4 (Homo sapiens, UniProt P31391)
Chain of Somatostatin receptor type 4 (P31391 whole entry): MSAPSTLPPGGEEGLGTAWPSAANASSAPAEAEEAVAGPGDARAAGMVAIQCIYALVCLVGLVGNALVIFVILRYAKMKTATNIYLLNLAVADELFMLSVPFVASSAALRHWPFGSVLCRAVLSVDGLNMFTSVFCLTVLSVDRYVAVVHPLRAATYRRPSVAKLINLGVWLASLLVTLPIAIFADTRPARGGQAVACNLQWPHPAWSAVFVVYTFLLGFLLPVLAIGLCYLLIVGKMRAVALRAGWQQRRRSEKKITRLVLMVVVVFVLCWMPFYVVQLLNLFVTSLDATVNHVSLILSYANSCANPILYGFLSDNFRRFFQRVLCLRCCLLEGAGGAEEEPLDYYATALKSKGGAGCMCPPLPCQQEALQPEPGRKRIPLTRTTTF

Chain of Somatostatin receptor type 3 (P32745 whole entry): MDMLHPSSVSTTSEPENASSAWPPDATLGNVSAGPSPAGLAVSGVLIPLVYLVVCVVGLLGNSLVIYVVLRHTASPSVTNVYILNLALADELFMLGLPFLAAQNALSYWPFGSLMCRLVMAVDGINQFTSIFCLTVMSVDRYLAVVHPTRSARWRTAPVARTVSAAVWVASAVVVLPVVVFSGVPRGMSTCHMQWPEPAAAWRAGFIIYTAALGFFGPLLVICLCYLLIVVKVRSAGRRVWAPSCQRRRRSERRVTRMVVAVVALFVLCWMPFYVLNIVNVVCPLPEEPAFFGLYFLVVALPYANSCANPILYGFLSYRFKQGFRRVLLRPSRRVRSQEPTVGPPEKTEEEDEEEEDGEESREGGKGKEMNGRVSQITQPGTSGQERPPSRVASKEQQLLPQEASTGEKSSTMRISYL

Ki [1] [nM]	Ki [2] [nM]	Ki [3] [nM]	Ki [4] [nM]	Structure (SMILES)
0.16	0.41	0.18	0.03	CC(C)C[C@H](NC(=O)[C@H](C)NC(=O)[C@@H]1CCCN1C(=O)[C@H](CC(N)=O)NC(=O)[C@H](CO)NC(=O)[C@H](CC(N)=O)NC(=O)[C@H](C)NC(=O)[C@@H](N)CO)C(=O)N[C@@H](C)C(=O)N1CCC[C@H]1C(=O)N[C@@H](CCCN=C(N)N)C(=O)N[C@@H](CCC(=O)O)C(=O)N[C@@H](CCCN=C(N)N)C(=O)N[C@@H](CCCCN)C(=O)N[C@@H](C)C(=O)NCC(=O)N[C@H]1CSSC[C@@H](C(=O)O)NC(=O)[C@H](CO)NC(=O)[C@H]([C@@H](C)O)NC(=O)[C@H](Cc2ccc(O)cc2)NC(=O)[C@H]([C@@H](C)O)NC(=O)[C@H](CCCCN)NC(=O)[C@@H](Cc2c[nH]c3ccccc23)NC(=O)[C@H](Cc2ccccc2)NC(=O)[C@H](Cc2ccccc2)NC(=O)[C@H](CC(N)=O)NC(=O)[C@H](CCCCN)NC1=O [Leu8, D-Trp22, Tyr25 SST-28] (H-SANSNPALAPRERKAGCKNFF[dW]KTYTSC-OH; disulfide 17-28)
8.9	37.4	4.4	195	NCCCCC1NC(=O)C(Cc2c[nH]c3ccccc23)NC(=O)C(Cc2ccc(O)cc2)NC(=O)C(NC(=O)C(N)Cc2ccccc2)CSSCC(C(=O)NCc2cccc3ccccc23)NC(=O)C(CO)NC1=O (stereo not drawn) [NC4-28B] (H-FCYWKSC-{NH(1-naphthylmethyl)}; disulfide 2-7; configuration not given here)
